Measured values taken from article PMC7307906, “Macrocyclic Modalities Combining Peptide Epitopes and Natural Product Fragments” (Journal of the American Chemical Society, 2020).

What was measured:
human MC4R [1] = biological target: T1, human MC4R (Homo sapiens, UniProt P32245); assay: Melanocortin receptor radioligand binding (SPA, [125I]-NDP-α-MSH displacement), MC4R; conditions: competitive binding, mean (± SEM) of at least three independent experiments, read-out: IC50 hMC4R binding
T1 construct: expressed in transfected cells

human MC4R [2] = biological target: T1, human MC4R; assay: cAMP assay (LANCE) in T-Rex-293 cells expressing MC4R; type: cell-based; conditions: cAMP assay; mean (± SEM) of at least three independent experiments; read-out: EC50 hMC4R cAMP
hMC1−5R = assay: Melanocortin receptor radioligand binding, result stated for all receptors together; set-up: species or system human
Description: Example concentration response curves for selected PepNats in MC1R, MC3R, MC4R, MC5R radioligand binding assays and MC1R, MC3R, MC4R cAMP assays. Responses were normalized to reference agonist NDP -α-MSH and presented as % effect of control, with full competition in binding defined as -100% and full agonism in cAMP assays defined as […]
binding assay. Threshold to define a compound as active was set to -30% in binding assays and 20% in cAMP assays respectively. Data are from at least three independent experiments and error bars represent ± Standard Error of the […]
% s p e c ific b in d in g o f
(1 picture or pasted object on this page, not shown here) […]
expression, MC1R and MC4R transfected cells were treated with 0.1 ng /mL and MC3R transfected cells with 10 ng/mL doxycyclin, for 24 h before assay.
Melanocortin receptor radioligand binding and cAMP assays.
Binding and cAMP assays were performed as described by Durek et al.7 “A 384-well format scintillation proximity assay (SPA) was used to identify compounds that show competitive binding to the human Melanocortin receptor 1,3,4 or 5 ligand binding domain (LBD). […] The inhibition of the scintillation signal by displacement of [ 125I]- NDP-α-MSH by test compounds were detected by a 1450 MicroBeta Trilux scintillation counter […]
Plates were incubated for 16-23 h in the dark at room temperature before reading on a 1450 […]
Measurements of cAMP production were performed using LANCE® cAMP kits (PerkinElmer) in a total assay volume of 12 µl/well. […] The reaction was stopped with detection buffer containing 10 µM Biotin-cAMP and 15 µM LANCE Eu-W8044 labelled streptavidin (PerkinElmer LANCE cAMP kit). cAMP production was detected by homogenous time resolved fluorescence (HTRF) (λex = 340 nm, λem = 665 and 615 nm) using a Pherastar (BMG Labtech).
PepNats, literature compounds and references were tested in ten-point concentration response (½ log serial dilution) with 100, 10 or 1 µM as final start concentrations. Raw data output was analyzed in Screener software (Genedata AG) and pEC50 and pIC50 values calculated using a four-

T1 sequence (P32245 whole entry): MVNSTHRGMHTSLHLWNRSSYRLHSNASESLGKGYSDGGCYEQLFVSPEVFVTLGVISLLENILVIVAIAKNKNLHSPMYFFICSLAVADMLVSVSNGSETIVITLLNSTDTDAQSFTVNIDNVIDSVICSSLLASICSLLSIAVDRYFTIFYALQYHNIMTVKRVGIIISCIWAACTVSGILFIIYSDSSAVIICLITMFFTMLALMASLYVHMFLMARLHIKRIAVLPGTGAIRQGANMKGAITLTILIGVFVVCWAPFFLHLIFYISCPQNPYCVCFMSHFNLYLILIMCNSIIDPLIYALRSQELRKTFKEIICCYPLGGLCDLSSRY

IC50 (human MC4R [1]): > 100 µM
EC50 (human MC4R [2]): > 100 µM
IC50 (hMC1−5R; competitive binding, one bound printed for all receptors): > 100 µM
binding to the MC receptors (in words) (hMC1−5R; human MC receptors, radioligand binding): did not bind to any of the receptors
SMILES: CN1C(=O)[C@H]2N[C@@H](c3ccc(cc3)C(=O)NCCCC[C@@H](C(=O)N[C@@H](Cc3ccc(O)cc3)C(N)=O)NC(=O)[C@H](CC(N)=O)NC(=O)[C@@H](Cc3ccccc3)NC(=O)[C@@H](Cc3ccccc3)NC(=O)[C@H](CCCNC(=N)N)NC(=O)[C@@H]1Cc1ccccc1)[C@H]1C(=O)N(c3ccccc3)C(=O)[C@H]12 [K1-minor, [II-FRffNK ]Y]
